Reference: US11440899B2, “Pyrimidine TBK/IKKe inhibitor compounds and uses thereof” (Merck Patent GmbH, priority 2017, dated 2022)
pIC50: −log10 of the molar value.

How the values were obtained:
IKKe = IKKe (Homo sapiens (Human), UniProt Q14164); assay: IKKe Biochemical Assay
Description: IKKe Biochemical Assay Test compounds were transferred into Labcyte polypropylene 384 well plates ([…]-25) and diluted to 3 mM using DMSO. 3 mM test compounds were dispensed using Labcyte ECHO dose response module into Greiner 784075 plates (columns 3-12 and 13-22, 10 point 1:4) so that high concentration was 30 uM final. 100 uM of a reference compound (1 uM final high concentration). Backfilling was performed if necessary so that all wells contain 1% DMSO final: add 75 nl DMSO/well into columns 1, 2 and 24 using Labcyte Echo. add 75 nl 1.0 mM staurosporine/well into column 23 using Labcyte Echo (10 uM final) add 4.5 ul enzyme/well using multidrop dispenser add 3 ul substrate/well using multidrop dispenser incubate at 25° C. for 90 min. add 7.5 ul 2× stop buffer read on labchip ez reader II using IKKε. job Raw data files were opened in the Caliper LabChip Reviewer program (Version 3.0.265.0 SP2) and peak assignments were adjusted to reflect “substrate first” with the software's post-run analysis options. A spline-fit baseline was applied using the software's analysis algorithm.

TBK1 = TBK1 (Homo sapiens (Human), UniProt Q9UHD2); assay: TBK Biochemical Assay
Description: Example 106: TBK Biochemical Assay Test compounds were transferred into Labcyte polypropylene 384 well plates ([…]-25) and diluted to 3 mM using DMSO. 3 mM test compounds were dispensed using Labcyte ECHO dose response module into Greiner 784075 plates (columns 3-12 and 13-22, 10 point 1:4) so that high concentration was 30 uM final. 100 uM of a reference compound (1 uM final high concentration). Backfilling was performed if necessary so that all wells contain 1% DMSO final: add 75 nl DMSO/well into columns 1, 2 and 24 using Labcyte Echo. add 75 nl 1.0 mM staurosporine/well into column 23 using Labcyte Echo (10 uM final) add 4.5 ul enzyme/well using multidrop dispenser add 3 ul substrate/well using multidrop dispenser incubate at 25° C. in Heidolph incubator for 90 min. add 7.5 ul 2× stop buffer using multidrop dispenser read on labchip ez reader II using TBK1.job Raw data files were opened in the Caliper LabChip Reviewer program (Version 3.0.265.0 SP2) and peak assignments were adjusted to reflect “substrate first” with the software's post-run analysis options. A spline-fit baseline was applied using the software's analysis algorithm.

IKKe, sequence (Q14164 whole entry, species assumed): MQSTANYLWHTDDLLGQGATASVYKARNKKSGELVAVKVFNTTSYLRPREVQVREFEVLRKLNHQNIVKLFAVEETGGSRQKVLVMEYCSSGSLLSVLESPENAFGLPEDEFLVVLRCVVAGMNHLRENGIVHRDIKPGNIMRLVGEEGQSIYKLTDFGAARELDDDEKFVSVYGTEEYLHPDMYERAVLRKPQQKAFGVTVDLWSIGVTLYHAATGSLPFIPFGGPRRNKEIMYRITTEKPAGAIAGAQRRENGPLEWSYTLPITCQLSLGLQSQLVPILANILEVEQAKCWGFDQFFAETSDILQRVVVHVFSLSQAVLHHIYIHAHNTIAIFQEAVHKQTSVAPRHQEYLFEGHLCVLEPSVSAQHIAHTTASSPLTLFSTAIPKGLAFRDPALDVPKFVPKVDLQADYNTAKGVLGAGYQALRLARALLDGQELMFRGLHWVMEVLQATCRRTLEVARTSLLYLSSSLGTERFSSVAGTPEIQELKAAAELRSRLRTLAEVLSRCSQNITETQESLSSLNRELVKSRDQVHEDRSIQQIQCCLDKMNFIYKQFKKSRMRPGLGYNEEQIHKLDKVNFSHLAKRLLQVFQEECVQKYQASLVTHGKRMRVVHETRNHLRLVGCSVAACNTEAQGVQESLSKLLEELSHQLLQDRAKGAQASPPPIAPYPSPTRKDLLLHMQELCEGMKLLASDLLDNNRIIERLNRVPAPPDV
TBK1, sequence (Q9UHD2 whole entry, species assumed): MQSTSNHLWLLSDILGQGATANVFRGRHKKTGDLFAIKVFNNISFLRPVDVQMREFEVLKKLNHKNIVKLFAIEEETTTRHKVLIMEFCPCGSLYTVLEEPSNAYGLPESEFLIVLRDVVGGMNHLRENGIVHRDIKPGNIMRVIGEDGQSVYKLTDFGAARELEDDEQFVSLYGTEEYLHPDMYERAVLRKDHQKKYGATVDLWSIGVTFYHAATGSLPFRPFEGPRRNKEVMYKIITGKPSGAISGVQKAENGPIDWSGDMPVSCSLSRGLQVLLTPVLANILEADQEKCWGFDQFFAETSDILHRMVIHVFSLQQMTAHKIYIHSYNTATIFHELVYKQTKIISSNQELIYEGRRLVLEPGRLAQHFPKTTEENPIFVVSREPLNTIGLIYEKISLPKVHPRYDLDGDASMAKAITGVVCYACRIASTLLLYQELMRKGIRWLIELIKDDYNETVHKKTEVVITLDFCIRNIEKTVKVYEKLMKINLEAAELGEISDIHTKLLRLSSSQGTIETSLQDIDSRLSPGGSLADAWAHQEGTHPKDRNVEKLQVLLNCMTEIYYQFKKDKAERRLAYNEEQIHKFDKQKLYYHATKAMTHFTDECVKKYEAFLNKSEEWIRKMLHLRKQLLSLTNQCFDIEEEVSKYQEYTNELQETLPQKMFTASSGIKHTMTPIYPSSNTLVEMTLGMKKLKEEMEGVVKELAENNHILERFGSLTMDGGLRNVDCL

| Structure (SMILES) | pIC50 (IKKe) | pIC50 (TBK1) |
| --- | --- | --- |
| COc1nc(Nc2cc(-c3ccc(OC4CCN(C)CC4)c(C#N)c3)ncn2)ccc1N1CCN(C)CC1 [Example 51, 5-(6-[[6-methoxy-5-(4-methylpiperazin-1-yl)pyridin-2-yl]amino]pyrimidin-4-yl)-2-[(1-methylpiperidin-4-yl)oxy]benzonitrile] | 6.00 to 7.00 | 6.00 to 7.00 |
| COc1nc(Nc2cc(-c3ccc(O[C@H]4CCN(C(=O)c5cnn[nH]5)C[C@H]4F)c(C#N)c3)ncn2)ccc1N1CCN(C)CC1 [Example 57, 2-[[(3R,4S)-3-fluoro-1-[(1H-1,2,3-triazol-5-yl)carbonyl]piperidin-4-yl]oxy]-5-(6-[[6-methoxy-5-(4-methylpiperazin-1-yl)pyridin-2-yl]amino]pyrimidin-4-yl)benzonitrile] | > 7.00 | > 7.00 |
| COc1nc(Nc2cc(-c3ccc(OC4CCN(C)CC4(F)F)c(C#N)c3)ncn2)ccc1N1CCN(C)CC1 (centres unmarked) [Example 58, 2-[(3,3-difluoro-1-methylpiperidin-4-yl)oxy]-5-(6-[[6-methoxy-5-(4-methylpiperazin-1-yl)pyridin-2-yl]amino]pyrimidin-4-yl)benzonitrile] | > 7.00 | > 7.00 |
| COc1nc(Nc2cc(-c3ccc(OC4CCN(C(=O)CO)CC4(F)F)c(C#N)c3)ncn2)ccc1N1CCN(C)CC1 (centres unmarked) [Example 59, 2-[[3,3-difluoro-1-(2-hydroxyacetyl)piperidin-4-yl]oxy]-5-(6-[[6-methoxy-5-(4-methylpiperazin-1-yl)pyridin-2-yl]amino]pyrimidin-4-yl)benzonitrile] | > 7.00 | > 7.00 |

The next lines start with the values.

| pIC50 (IKKe) | pIC50 (TBK1) | Structure (SMILES) |
| --- | --- | --- |
| > 7.00 | > 7.00 | COc1nc(Nc2cc(-c3ccc(OC4CCNCC4)c(C#N)c3)ncn2)ccc1N1CCN(C)CC1 [Example 50, 5-(6-[[6-methoxy-5-(4-methylpiperazin-1-yl)pyridin-2-yl]amino]pyrimidin-4-yl)-2-(piperidin-4-yloxy)benzonitrile] |
| > 7.00 | > 7.00 | COc1nc(Nc2cc(-c3ccc(OC4CCN(C(=O)CO)CC4)c(C#N)c3)ncn2)ccc1N1CCN(C)CC1 [Example 52, 2-[[1-(2-hydroxyacetyl)piperidin-4-yl]oxy]-5-(6-[[6-methoxy-5-(4-methylpiperazin-1-yl)pyridin-2-yl]amino]pyrimidin-4-yl)benzonitrile] |
| > 7.00 | > 7.00 | COc1nc(Nc2cc(-c3ccc(OC4CCN(C(=O)C(C)O)CC4)c(C#N)c3)ncn2)ccc1N1CCN(C)CC1 (centres unmarked) [Example 53, 2-[[1-(2-hydroxypropanoyl)piperidin-4-yl]oxy]-5-(6-[[6-methoxy-5-(4-methylpiperazin-1-yl)pyridin-2-yl]amino]pyrimidin-4-yl)benzonitrile] |
| > 7.00 | > 7.00 | COc1nc(Nc2cc(-c3ccc(OC4CCN(C(=O)c5cocn5)CC4)c(C#N)c3)ncn2)ccc1N1CCN(C)CC1 [Example 54, 5-(6-[[6-methoxy-5-(4-methylpiperazin-1-yl)pyridin-2-yl]amino]pyrimidin-4-yl)-2-([1-[(1,3-oxazol-4-yl)carbonyl]piperidin-4-yl]oxy)benzonitrile] |
| > 7.00 | > 7.00 | COc1nc(Nc2cc(-c3ccc(OC4CCN(C(=O)c5n[nH]c(C)n5)CC4)c(C#N)c3)ncn2)ccc1N1CCN(C)CC1 [Example 55, 5-(6-[[6-methoxy-5-(4-methylpiperazin-1-yl)pyridin-2-yl]amino]pyrimidin-4-yl)-2-([1-[(5-methyl-1H-1,2,4-triazol-3-yl)carbonyl]piperidin-4-yl]oxy)benzonitrile] |
| > 7.00 | > 7.00 | COc1nc(Nc2cc(-c3ccc(OC4CCN(C(=O)c5cnco5)CC4)c(C#N)c3)ncn2)ccc1N1CCN(C)CC1 [Example 56, 5-(6-[[6-methoxy-5-(4-methylpiperazin-1-yl)pyridin-2-yl]amino]pyrimidin-4-yl)-2-([1-[(1,3-oxazol-5-yl)carbonyl]piperidin-4-yl]oxy)benzonitrile] |
